pIC50: −log10 of the molar value.
How the values were obtained:
[1] = biological target: Kit (Homo sapiens, UniProt P10721); experiment: Kinase activity assay, Kit
[2] = biological target: Src (Homo sapiens, UniProt P12931); experiment: Kinase activity assay, Src
[3] = biological target: B-Raf V600E (Homo sapiens, UniProt P15056, V600E); experiment: Kinase activity assay, B-Raf V600E; format: biochemical; conditions: read-out: activity toward kinase B-Raf V600E, IC50
[4] = biological target: Btk (Homo sapiens, UniProt Q06187); experiment: Kinase activity assay, Btk
Chain of Btk (Q06187 whole entry): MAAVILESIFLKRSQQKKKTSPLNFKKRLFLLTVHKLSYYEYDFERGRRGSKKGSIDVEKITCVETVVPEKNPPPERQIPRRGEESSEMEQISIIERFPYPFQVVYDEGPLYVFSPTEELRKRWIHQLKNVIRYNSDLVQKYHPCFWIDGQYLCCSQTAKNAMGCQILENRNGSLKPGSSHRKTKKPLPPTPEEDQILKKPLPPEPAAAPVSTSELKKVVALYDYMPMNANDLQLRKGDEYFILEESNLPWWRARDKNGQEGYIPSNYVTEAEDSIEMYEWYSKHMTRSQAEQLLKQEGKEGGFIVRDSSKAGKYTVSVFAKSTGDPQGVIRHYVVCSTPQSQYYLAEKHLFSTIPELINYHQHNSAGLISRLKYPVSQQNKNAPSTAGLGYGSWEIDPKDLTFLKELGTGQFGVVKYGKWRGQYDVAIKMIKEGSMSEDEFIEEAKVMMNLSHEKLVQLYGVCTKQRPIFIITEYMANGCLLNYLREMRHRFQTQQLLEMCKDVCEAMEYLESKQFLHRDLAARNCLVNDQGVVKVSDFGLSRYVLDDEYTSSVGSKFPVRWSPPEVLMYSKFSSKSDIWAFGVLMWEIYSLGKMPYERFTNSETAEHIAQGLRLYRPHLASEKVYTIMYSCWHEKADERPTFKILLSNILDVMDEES

[5] = biological target: Fms (Homo sapiens, UniProt P07333); experiment: Kinase activity assay, Fms
Chain of Fms (P07333 20-972): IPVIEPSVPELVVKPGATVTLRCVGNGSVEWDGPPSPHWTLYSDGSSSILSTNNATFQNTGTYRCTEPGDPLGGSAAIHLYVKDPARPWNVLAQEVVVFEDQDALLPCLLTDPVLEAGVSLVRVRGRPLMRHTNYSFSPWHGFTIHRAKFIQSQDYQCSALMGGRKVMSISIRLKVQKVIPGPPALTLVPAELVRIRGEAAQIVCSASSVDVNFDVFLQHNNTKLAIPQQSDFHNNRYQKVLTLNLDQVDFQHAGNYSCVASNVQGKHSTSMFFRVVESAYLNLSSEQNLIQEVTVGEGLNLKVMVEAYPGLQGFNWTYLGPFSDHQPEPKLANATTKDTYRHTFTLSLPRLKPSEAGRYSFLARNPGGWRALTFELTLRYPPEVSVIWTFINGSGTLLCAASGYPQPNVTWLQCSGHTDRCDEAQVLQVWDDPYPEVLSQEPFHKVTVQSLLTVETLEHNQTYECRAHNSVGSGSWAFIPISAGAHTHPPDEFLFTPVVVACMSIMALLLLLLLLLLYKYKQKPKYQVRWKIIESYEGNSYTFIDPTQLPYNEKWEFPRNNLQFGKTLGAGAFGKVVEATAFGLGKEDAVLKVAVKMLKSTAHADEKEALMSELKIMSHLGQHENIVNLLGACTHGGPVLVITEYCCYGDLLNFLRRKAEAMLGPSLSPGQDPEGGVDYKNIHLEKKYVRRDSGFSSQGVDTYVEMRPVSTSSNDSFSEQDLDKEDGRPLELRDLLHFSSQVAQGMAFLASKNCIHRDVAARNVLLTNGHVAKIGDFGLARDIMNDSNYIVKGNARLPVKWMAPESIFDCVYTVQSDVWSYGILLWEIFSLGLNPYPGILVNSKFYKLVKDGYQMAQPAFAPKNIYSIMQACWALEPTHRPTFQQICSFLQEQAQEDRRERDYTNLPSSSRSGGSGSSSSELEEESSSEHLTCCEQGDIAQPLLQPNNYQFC

[6] = biological target: B-Raf (Homo sapiens, UniProt P15056); experiment: Kinase activity assay, B-Raf; format: biochemical; conditions: read-out: activity toward kinase B-Raf, IC50
[7] = biological target: Kdr (Homo sapiens, UniProt P35968); experiment: Kinase activity assay, Kdr
[8] = biological target: C-Raf (Homo sapiens, UniProt P04049); experiment: Kinase activity assay, C-Raf
Chain of C-Raf (P04049 whole entry): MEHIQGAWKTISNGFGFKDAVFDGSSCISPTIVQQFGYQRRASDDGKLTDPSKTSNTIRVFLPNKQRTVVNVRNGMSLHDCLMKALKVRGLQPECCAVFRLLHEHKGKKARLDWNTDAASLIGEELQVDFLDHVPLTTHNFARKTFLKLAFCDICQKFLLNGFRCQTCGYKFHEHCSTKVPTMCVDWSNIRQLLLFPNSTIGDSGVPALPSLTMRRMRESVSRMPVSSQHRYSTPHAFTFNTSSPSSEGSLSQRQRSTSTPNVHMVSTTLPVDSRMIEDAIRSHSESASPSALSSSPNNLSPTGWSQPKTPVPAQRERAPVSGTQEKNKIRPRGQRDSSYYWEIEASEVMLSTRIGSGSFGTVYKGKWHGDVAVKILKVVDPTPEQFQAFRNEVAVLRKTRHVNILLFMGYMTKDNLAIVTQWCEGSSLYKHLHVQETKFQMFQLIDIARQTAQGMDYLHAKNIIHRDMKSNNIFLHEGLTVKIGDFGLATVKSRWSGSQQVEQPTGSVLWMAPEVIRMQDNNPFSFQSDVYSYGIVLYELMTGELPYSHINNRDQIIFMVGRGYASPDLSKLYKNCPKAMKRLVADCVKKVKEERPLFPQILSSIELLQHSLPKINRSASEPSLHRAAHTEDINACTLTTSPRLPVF

[9] = biological target: T1, A-Raf (Homo sapiens, UniProt P10398); experiment: Kinase activity assay, A-Raf
T1 sequence (P10398 1-606): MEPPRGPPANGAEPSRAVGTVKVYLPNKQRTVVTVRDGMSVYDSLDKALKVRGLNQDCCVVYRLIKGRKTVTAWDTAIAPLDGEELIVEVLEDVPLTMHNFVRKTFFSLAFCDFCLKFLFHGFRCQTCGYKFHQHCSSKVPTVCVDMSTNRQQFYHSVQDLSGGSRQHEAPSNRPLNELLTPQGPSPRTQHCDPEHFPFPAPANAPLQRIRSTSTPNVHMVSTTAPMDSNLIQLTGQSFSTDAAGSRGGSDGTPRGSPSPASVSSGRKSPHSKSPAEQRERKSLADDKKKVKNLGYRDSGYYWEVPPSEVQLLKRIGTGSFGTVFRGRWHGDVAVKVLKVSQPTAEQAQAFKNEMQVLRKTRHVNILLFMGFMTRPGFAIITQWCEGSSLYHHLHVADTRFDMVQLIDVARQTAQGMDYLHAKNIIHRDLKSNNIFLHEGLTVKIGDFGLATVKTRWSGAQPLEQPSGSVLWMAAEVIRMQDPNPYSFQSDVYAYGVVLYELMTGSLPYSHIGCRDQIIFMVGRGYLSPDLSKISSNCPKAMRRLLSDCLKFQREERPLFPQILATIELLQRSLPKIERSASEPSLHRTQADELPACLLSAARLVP

[10] = biological target: MAP4K4 (Homo sapiens, UniProt O95819); experiment: Kinase activity assay, MAP4K4
Chain of MAP4K4 (O95819 whole entry): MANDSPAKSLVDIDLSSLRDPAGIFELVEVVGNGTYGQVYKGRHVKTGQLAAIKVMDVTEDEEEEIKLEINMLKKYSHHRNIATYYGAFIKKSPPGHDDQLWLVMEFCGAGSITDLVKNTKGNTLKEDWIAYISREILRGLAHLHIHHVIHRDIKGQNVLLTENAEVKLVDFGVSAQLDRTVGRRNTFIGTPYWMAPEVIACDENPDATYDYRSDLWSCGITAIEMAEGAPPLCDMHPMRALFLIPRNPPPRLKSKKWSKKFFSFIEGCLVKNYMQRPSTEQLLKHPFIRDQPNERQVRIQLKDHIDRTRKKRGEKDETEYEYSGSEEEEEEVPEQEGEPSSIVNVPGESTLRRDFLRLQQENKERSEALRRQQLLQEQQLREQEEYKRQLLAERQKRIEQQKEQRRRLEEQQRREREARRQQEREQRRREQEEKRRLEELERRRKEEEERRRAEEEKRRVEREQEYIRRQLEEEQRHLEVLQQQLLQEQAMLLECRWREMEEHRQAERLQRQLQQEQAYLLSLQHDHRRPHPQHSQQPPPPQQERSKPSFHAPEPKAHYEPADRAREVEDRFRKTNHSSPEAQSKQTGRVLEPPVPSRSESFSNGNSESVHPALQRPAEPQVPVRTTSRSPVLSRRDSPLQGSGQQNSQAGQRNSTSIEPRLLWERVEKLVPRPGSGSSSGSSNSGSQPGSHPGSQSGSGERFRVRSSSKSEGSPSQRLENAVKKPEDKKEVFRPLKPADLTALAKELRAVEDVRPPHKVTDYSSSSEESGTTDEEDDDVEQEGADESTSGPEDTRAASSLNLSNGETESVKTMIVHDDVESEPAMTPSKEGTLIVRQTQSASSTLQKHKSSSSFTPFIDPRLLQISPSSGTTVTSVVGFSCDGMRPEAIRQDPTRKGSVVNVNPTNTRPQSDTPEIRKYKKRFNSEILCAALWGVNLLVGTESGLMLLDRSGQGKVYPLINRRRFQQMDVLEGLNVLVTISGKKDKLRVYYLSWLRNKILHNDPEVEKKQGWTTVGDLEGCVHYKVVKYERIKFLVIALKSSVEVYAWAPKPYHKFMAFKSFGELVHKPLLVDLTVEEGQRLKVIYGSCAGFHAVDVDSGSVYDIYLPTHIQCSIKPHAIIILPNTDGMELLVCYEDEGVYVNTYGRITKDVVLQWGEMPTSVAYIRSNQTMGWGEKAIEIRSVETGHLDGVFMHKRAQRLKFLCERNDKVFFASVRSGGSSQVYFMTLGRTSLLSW

Measured: pIC50

Chain of Kit (P10721 26-976): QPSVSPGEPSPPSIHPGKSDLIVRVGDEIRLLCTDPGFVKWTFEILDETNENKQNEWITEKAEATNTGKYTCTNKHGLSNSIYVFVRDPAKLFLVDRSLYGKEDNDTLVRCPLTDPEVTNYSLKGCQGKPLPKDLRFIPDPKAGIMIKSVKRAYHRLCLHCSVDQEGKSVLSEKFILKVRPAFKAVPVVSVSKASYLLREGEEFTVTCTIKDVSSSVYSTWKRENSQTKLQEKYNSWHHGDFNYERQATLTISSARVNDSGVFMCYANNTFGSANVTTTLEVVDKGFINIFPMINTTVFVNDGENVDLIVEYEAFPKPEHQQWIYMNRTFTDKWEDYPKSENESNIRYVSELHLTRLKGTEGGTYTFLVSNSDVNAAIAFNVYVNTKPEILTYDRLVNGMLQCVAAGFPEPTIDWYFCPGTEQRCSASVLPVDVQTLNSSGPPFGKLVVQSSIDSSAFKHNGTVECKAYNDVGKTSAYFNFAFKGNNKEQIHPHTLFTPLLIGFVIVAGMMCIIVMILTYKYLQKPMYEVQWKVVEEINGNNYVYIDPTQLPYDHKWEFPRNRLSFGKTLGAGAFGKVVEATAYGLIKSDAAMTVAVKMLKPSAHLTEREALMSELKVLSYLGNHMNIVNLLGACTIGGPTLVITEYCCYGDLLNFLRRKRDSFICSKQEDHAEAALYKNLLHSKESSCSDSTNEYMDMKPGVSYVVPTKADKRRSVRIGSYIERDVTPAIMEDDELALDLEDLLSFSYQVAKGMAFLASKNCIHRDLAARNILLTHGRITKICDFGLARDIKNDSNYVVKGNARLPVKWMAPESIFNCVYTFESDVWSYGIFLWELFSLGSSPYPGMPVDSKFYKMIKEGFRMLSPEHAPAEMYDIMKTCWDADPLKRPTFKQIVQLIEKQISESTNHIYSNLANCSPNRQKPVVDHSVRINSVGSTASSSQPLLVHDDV
Chain of Src (P12931 whole entry): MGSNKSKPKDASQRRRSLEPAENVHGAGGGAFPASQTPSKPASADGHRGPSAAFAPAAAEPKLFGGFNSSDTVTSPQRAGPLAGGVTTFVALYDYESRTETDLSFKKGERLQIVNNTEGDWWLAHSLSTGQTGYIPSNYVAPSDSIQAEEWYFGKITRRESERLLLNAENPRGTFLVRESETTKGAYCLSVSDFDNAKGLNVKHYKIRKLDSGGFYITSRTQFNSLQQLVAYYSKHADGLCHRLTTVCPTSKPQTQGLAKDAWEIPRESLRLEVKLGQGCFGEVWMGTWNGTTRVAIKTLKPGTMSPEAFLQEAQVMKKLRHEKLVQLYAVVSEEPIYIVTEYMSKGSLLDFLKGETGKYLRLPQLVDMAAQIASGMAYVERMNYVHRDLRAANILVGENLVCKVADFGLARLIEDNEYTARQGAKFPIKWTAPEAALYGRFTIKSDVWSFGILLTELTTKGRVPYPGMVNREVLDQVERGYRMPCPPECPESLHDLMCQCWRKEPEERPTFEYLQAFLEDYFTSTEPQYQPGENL

Cn1cc(-c2cnc3[nH]cc(C(=O)c4cc(NS(=O)(=O)c5cccc(C(F)(F)F)c5)ccc4F)c3c2)cn1 [P-2101, N-{4-Fluoro-3-[5-(1-methyl-1H-pyrazol-4-yl)-1H-pyrrolo[2,3-b]pyridine-3-carbonyl]-phenyl}-3-trifluoromethyl-benzenesulfonamide]
not listed: [9] | [10]
≥ 5.00: all other assays above

Cn1cc(-c2cnc3[nH]cc(C(=O)c4cc(NS(=O)(=O)c5cccc(OC(F)(F)F)c5)ccc4F)c3c2)cn1 [P-2102, N-{4-Fluoro-3-[5-(1-methyl-1H-pyrazol-4-yl)-1H-pyrrolo[2,3-b]pyridine-3-carbonyl]-phenyl}-3-trifluoromethoxy-benzenesulfonamide]
not listed: [8] | [9] | [10]
≥ 5.00: all other assays above

Cn1cc(-c2cnc3[nH]cc(C(=O)c4cc(NS(=O)(=O)c5cccc(Cl)c5)ccc4F)c3c2)cn1 [P-2103, 3-Chloro-N-{4-fluoro-3-[5-(1-methyl-1H-pyrazol-4-yl)-1H-pyrrolo[2,3-b]pyridine-3-carbonyl]-phenyl}-benzenesulfonamide]
not listed: [8] | [9] | [10]
≥ 5.00: all other assays above

CCCS(=O)(=O)Nc1ccc(F)c(C(=O)c2c[nH]c3ncc(-c4ccc(NS(C)(=O)=O)cc4)cc23)c1F [P-2165, Propane-1-sulfonic acid {2,4-difluoro-3-[5-(4-methanesulfonylamino-phenyl)-1H-pyrrolo[2,3-b]pyridine-3-carbonyl]-phenyl}-amide]
not listed: [10]
≥ 5.00: all other assays above

CCCS(=O)(=O)Nc1ccc(F)c(C(=O)c2c[nH]c3ncc(-c4ccc(OCCCN(C)C)nc4)cc23)c1F [P-2178, Propane-1-sulfonic acid (3-{5-[6-(3-dimethylamino-propoxy)-pyridin-3-yl]-1H-pyrrolo[2,3-b]pyridine-3-carbonyl}-2,4-difluoro-phenyl)-amide]
not listed: [9] | [10]
≥ 5.00: all other assays above

CCCS(=O)(=O)Nc1ccc(F)c(C(=O)c2c[nH]c3ncc(-c4ccc(OC)nc4OC)cc23)c1F [P-2184, Propane-1-sulfonic acid {3-[5-(2,6-dimethoxy-pyridin-3-yl)-1H-pyrrolo[2,3-b]pyridine-3-carbonyl]-2,4-difluoro-phenyl}-amide]
not listed: [8] | [9] | [10]
≥ 5.00: all other assays above

CCCS(=O)(=O)Nc1ccc(F)c(C(=O)c2c[nH]c3ncc(-c4cnn(Cc5ccccc5)c4)cc23)c1F [P-2190, Propane-1-sulfonic acid {3-[5-(1-benzyl-1H-pyrazol-4-yl)-1H-pyrrolo[2,3-b]pyridine-3-carbonyl]-2,4-difluoro-phenyl}-amide]
not listed: [8] | [9] | [10]
≥ 5.00: all other assays above

CCCS(=O)(=O)Nc1ccc(F)c(C(=O)c2c[nH]c3ncc(-c4ccc(S(N)(=O)=O)cc4)cc23)c1F [P-2194, 4-{3-[2,6-Difluoro-3-(propane-1-sulfonylamino)-benzoyl]-1H-pyrrolo[2,3-b]pyridin-5-yl}-benzenesulfonamide]
not listed: [8] | [9] | [10]
≥ 5.00: all other assays above

CCCS(=O)(=O)Nc1ccc(F)c(C(=O)c2c[nH]c3ncc(-c4ccc(C#CCN(CC)CC)nc4)cc23)c1F [P-2222, Propane-1-sulfonic acid (3-{5-[6-(3-diethylamino-prop-1-ynyl)-pyridin-3-yl]-1H-pyrrolo[2,3-b]pyridine-3-carbonyl}-2,4-difluoro-phenyl)-amide]
not listed: [9]
≥ 5.00: all other assays above

CCCS(=O)(=O)Nc1ccc(F)c(C(=O)c2c[nH]c3ncc(-c4ccc(N(C)C)nc4)cc23)c1F [P-2229, Propane-1-sulfonic acid {3-[5-(6-dimethylamino-pyridin-3-yl)-1H-pyrrolo[2,3-b]pyridine-3-carbonyl]-2,4-difluoro-phenyl}-amide]
not listed: [5] | [9]
≥ 5.00: all other assays above

CCCS(=O)(=O)Nc1ccc(F)c(C(=O)c2c[nH]c3ncc(-c4ccc(OCCCN5CCCC5)nc4)cc23)c1F [P-2235, Propane-1-sulfonic acid (2,4-difluoro-3-{5-[6-(3-pyrrolidin-1-yl-propoxy)-pyridin-3-yl]-1H-pyrrolo[2,3-b]pyridine-3-carbonyl}-phenyl)-amide]
≥ 5.00: all assays above

CCS(=O)(=O)Nc1ccc(F)c(C(=O)c2c[nH]c3ncc(-c4ccc(F)cc4)cc23)c1F [P-2270, Ethanesulfonic acid {2,4-difluoro-3-[5-(4-fluoro-phenyl)-1H-pyrrolo[2,3-b]pyridine-3-carbonyl]-phenyl}-amide]
not listed: [8] | [9]
≥ 5.00: all other assays above

O=C(c1c(F)ccc(NS(=O)(=O)C2CC2)c1F)c1c[nH]c2ncc(-c3ccc(Cl)cc3)cc12 [P-2350, Cyclopropanesulfonic acid {3-[5-(4-chloro-phenyl)-1H-pyrrolo[2,3-b]pyridine-3-carbonyl]-2,4-difluoro-phenyl}-amide]
≥ 5.00: [1] | [2] | [4] | [5] | [7] | [8]

O=C(c1c(F)ccc(NS(=O)(=O)C2CC2)c1F)c1c[nH]c2ncc(-c3ccc(F)cc3)cc12 [P-2351, Cyclopropanesulfonic acid {2,4-difluoro-3-[5-(4-fluoro-phenyl)-1H-pyrrolo[2,3-b]pyridine-3-carbonyl]-phenyl}-amide]
not listed: [8] | [9] | [10]
≥ 5.00: all other assays above

N#Cc1cnc2[nH]cc(C(=O)c3cccc(NS(=O)(=O)N4CCCC4)c3F)c2c1 [P-2420, Pyrrolidine-1-sulfonic acid [3-(5-cyano-1H-pyrrolo[2,3-b]pyridine-3-carbonyl)-2-fluoro-phenyl]-amide]
≥ 5.00: [3] | [4] | [9] | [6] | [8]

CCCS(=O)(=O)Nc1ccc(F)c(C(=O)c2c[nH]c3ncc(-c4cnn(C)c4)cc23)c1 [P-2431, Propane-1-sulfonic acid {4-fluoro-3-[5-(1-methyl-1H-pyrazol-4-yl)-1H-pyrrolo[2,3-b]pyridine-3-carbonyl]-phenyl}-amide]
not listed: [9] | [10]
≥ 5.00: all other assays above

O=C(c1cccc(NS(=O)(=O)C2CCCCC2)c1)c1c[nH]c2ncc(F)cc12 [P-2462, Cyclohexanesulfonic acid [3-(5-fluoro-1H-pyrrolo[2,3-b]pyridine-3-carbonyl)-phenyl]-amide]
≥ 5.00: [10] | [4]

Source: patent publication US20120122860A1, “SOLID FORMS OF SULFONAMIDES AND AMINO ACIDS” (Plexxikon, Inc., priority 2009, published 2012)
